Values quoted from earlier work in patent US6800435B2, “Insect sodium channels from insecticide-susceptible and insecticide-resistant house flies” (Cornell Research Foundation, Inc., priority 1996, dated 2004).

Tested on: resistant (538ge) house fly strain
Conditions: kdr trait, adult flies, Sawicki 1978

Clc1ccc(C(c2ccc(Cl)cc2)C(Cl)(Cl)Cl)cc1 [DDT, 1,1-bis-(4-chlorophenyl)-2,2,2-trichloroethane]
doses required to kill approximately 50% of the treated individuals: approximately 0.5 μg per adult fly
